Results taken from PubChem BioAssay (NCI).
Several values for one entry are separate records, joined by “and”; a condition that tells them apart may be missing. Equal entries are not always repeated.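 Five compound concentrations were applied to cells in 96-well plates for 48 hours; endpoints were derived by simple linear interpolation of the resulting dose-response curve. At the GI50, growth is halved. TGI marks complete inhibition of growth.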 Where a SMILES comes first, the peptide text is derived from it. Bridges are numbered along the chain shown (N, C = ends). [ ]: non-standard residue; d: D form. ξ: configuration not given here. ξThr(3R) = C[C@@H](O)C(N)C(=O)O; S5 = C=CCCC[C@](C)(N)C(=O)O

Key:
Experiment in all cases: inhibition of tumour cell growth, NCI panel, 48 h
SNB-19 CNS = test system: SNB-19 CNS
COLO 205 colon = test system: COLO 205 colon
RXF 393 renal = test system: RXF 393 renal
NCI-H460 lung = test system: NCI-H460 lung
MCF7 breast = test system: MCF7 breast
MDA-MB-231 breast = test system: MDA-MB-231 breast
HS 578T breast = test system: HS 578T breast
OVCAR-3 ovarian = test system: OVCAR-3 ovarian
LOX IMVI melanoma = test system: LOX IMVI melanoma
SW-620 colon = test system: SW-620 colon

Structure (SMILES)	GI50 (SNB-19 CNS)	TGI (SNB-19 CNS)	GI50 (COLO 205 colon)	TGI (COLO 205 colon)	GI50 (RXF 393 renal)	TGI (RXF 393 renal)	GI50 (NCI-H460 lung)	TGI (NCI-H460 lung)	GI50 (MCF7 breast)	TGI (MCF7 breast)	GI50 (MDA-MB-231 breast)	TGI (MDA-MB-231 breast)	GI50 (HS 578T breast)	TGI (HS 578T breast)	GI50 (OVCAR-3 ovarian)	TGI (OVCAR-3 ovarian)	GI50 (LOX IMVI melanoma)	TGI (LOX IMVI melanoma)	GI50 (SW-620 colon)	TGI (SW-620 colon)
CCN(CC)CCC(CNc1ccnc2cc(Cl)ccc12)c1ccccc1 (stereo not drawn)	16.2 µM	74.1 µM	1.45 µM	3.33 µM	2.3 µM	5.65 µM	8.36 µM	29 µM	4.75 µM	18 µM	2.18 µM	15.8 µM	11.5 µM	43 µM	14.9 µM	> 100 µM	1.77 µM	5.17 µM	4.81 µM	22.2 µM
NC(=O)CC1(O)C=C(Br)C(=O)C(Br)=C1	18.1 µM	32.6 µM	1.25 µM	2.63 µM	1.9 µM	4.05 µM	18.5 µM	37 µM	3.3 µM	15.3 µM	6.85 µM	20.2 µM	17.8 µM	46 µM	2.22 µM	5.34 µM	3.65 µM	13 µM	1.77 µM	3.47 µM
Nc1cc(C(F)(F)F)c(-c2cc(N3CCOCC3)nc(N3CCOCC3)n2)cn1	2.28 µM and 2.71 µM	> 100 µM	0.629 µM and 1.25 µM	2.8 µM and 3.42 µM	0.561 µM and 0.65 µM	2.83 µM and 3.26 µM	0.646 µM and 0.451 µM	7.27 µM and 12.4 µM	0.228 µM and 0.257 µM	> 10 µM and 4.05 µM	1.26 µM and 2.06 µM	> 8.48 µM and 11.9 µM	0.313 µM and 0.522 µM	1.55 µM and 5.2 µM	0.919 µM and 1.03 µM	4.71 µM and 4.45 µM	0.807 µM and 0.907 µM	> 33.4 µM	1 µM and 0.717 µM	> 100 µM
O=C(/C=C/C(Cl)(Cl)Cl)Nc1ccc(Cl)cc1		32 µM		5.16 µM		6.62 µM		40 µM		34.3 µM		6.15 µM		54.3 µM		17.3 µM		2.2 µM		14 µM
CC(c1ccccc1)[C@@H](C(=O)Nc1ccc(I)cc1F)N1C(=O)N[C@H](c2ccc(OC[C@H](O)CO)cc2)C1=O (stereo partly drawn)	6.63 µM	> 25 µM	0.0368 µM	> 25 µM	4.2 µM	> 22.6 µM	> 14.6 µM	> 25 µM	> 15 µM	> 25 µM	1.56 µM	> 25 µM	16.3 µM	> 25 µM	> 21.3 µM	> 25 µM	2.5 µM	> 25 µM	1.09 µM	> 25 µM
CC(=O)N[C@H](C(=O)N[C@@H](CCCNC(=N)N)C(=O)N[C@@H](CCCCN)C(=O)N[C@@H](CCCNC(=N)N)C(=O)NC(C(=O)N[C@@H](CC(C)C)C(=O)N[C@@H](CCCNC(=N)N)C(=O)N[C@@]1(C)CCC/C=C\CCC[C@@](C)(C(=O)N[C@@H](CCCNC(=N)N)C(=O)N[C@@H](CCC(=O)O)C(=O)N[C@@H](CC(C)C)C(=O)N[C@H](C(=O)N[C@@H](CCC(=O)O)C(N)=O)C(C)C)NC(=O)[C@H](CCC(N)=O)NC(=O)[C@H](CC(C)C)NC(=O)[C@H](CC(C)C)NC1=O)[C@@H](C)O)C(C)C (stereo partly drawn) (Ac-VRKR[ξThr(3R)]LR[S5]LLQ[S5]RELVE-NH2; staple (Z) 8-12)	7.94 µM	17.9 µM	2.41 µM	9.89 µM	2.7 µM	12.1 µM	1.76 µM	6.84 µM	3.41 µM	11.7 µM	8.24 µM	17.1 µM	1.48 µM	5.31 µM	8.16 µM	15.7 µM	8.64 µM	18.8 µM	8.29 µM	16.2 µM
N#Cc1ccccc1C#C/C=C\C#CC#C/C=C\C#Cc1ccccc1C#N	7.27 µM	> 100 µM	7.33 µM	21.1 µM	15 µM	68.2 µM	41.3 µM	> 100 µM	47.4 µM	> 100 µM	8.76 µM	35.4 µM	5.38 µM	78.8 µM	4.55 µM	21.4 µM	17.3 µM	45 µM	9.1 µM	> 100 µM
COc1cc(/C=C/C(=O)N2CCC=CC2=O)cc(OC)c1OC	5.55 µM	20.6 µM	1.93 µM	4.14 µM	1.73 µM	4.07 µM	3.36 µM	10.6 µM	2.36 µM	13.9 µM	3.38 µM	10.8 µM	5.36 µM	43.6 µM	3.34 µM	11.9 µM	2.09 µM	5.13 µM	2.51 µM	6.61 µM
COc1cccc2nc3ccccc3nc12		> 100 µM		> 100 µM		> 100 µM		> 100 µM		> 100 µM		> 100 µM		> 100 µM		> 100 µM		> 100 µM		> 100 µM
O=C(COc1ccc(OCC(=O)N2C(=O)CN(c3ccccc3)C2=S)cc1)N1C(=O)CN(c2ccccc2)C1=S	> 25 µM	> 100 µM	> 25 µM	> 100 µM	> 25 µM	> 100 µM	> 25 µM	> 100 µM		> 100 µM	> 25 µM	> 100 µM	> 25 µM	> 100 µM	> 25 µM	> 100 µM	29.6 µM	> 100 µM	> 25 µM	> 100 µM
COC1=C(OC)C(=O)C(Sc2ccc3ccccc3c2)=CC1=O		32.4 µM		23.7 µM		22.1 µM		43.4 µM		43.9 µM		32.9 µM		53.4 µM		32.7 µM		30.6 µM		> 61 µM
Nc1nnnc2nc[nH]c12	6.17 µM	> 100 µM	1.85 µM	7.47 µM	1.35 µM	> 100 µM	2.46 µM	> 100 µM	2.58 µM	> 100 µM	0.597 µM	> 100 µM	3.51 µM	> 65.5 µM	2.53 µM	> 100 µM	0.455 µM	> 25.8 µM	0.78 µM	> 100 µM
CCN(CC)c1ccc2nc3c4ccccc4c(=O)cc-3n(-c3ccccc3)c2c1	3.32 µM	> 100 µM	0.353 µM	1.59 µM	1.94 µM	5.83 µM	2.26 µM	6.46 µM	0.53 µM	7.83 µM	2.22 µM	8.2 µM	2.37 µM	7.24 µM	1.16 µM	3.85 µM	1.62 µM	3.72 µM	2.89 µM	13.6 µM
Cc1c(-c2ccc(O)cc2)oc(=O)c2ccc(O)cc12	> 100 µM	> 100 µM	> 100 µM	> 100 µM	> 100 µM	> 100 µM	45.3 µM	> 100 µM	66.3 µM	> 100 µM	> 100 µM	> 100 µM	43.5 µM	> 100 µM	51.5 µM	> 100 µM	> 100 µM	> 100 µM	55.4 µM	> 100 µM
O=c1ccc(=O)n(-c2ccccc2)[nH]1		> 100 µM		> 100 µM		> 100 µM		> 100 µM		> 100 µM		> 100 µM		> 100 µM		> 100 µM		> 100 µM		> 100 µM
COc1cccc(C2=C(c3cn(C)c4cc(F)ccc34)C(=O)NC2=O)c1	> 25 µM	> 25 µM	10.9 µM	> 25 µM	8.79 µM	> 25 µM	> 18.6 µM	> 25 µM	7.56 µM	> 25 µM	> 25 µM	> 25 µM	> 24 µM	> 25 µM	> 18.7 µM	> 25 µM	17.1 µM	> 25 µM	13.1 µM	> 25 µM
NC1=NC(=O)/C(=C/c2ccc3ncccc3c2)S1	> 25 µM	> 25 µM	> 25 µM	> 25 µM	> 25 µM	> 25 µM	> 25 µM	> 25 µM	> 12.2 µM	> 25 µM	> 25 µM	> 25 µM	> 25 µM	> 25 µM	> 25 µM	> 25 µM	> 25 µM	> 25 µM	> 25 µM	> 25 µM
CCOC(=O)c1c(NC(=O)c2ccccc2)sc2c3c(ccc12)OCN(C)C3	1.56 µM	3.1 µM	1.77 µM	3.7 µM	1.57 µM	3.2 µM	1.87 µM	3.53 µM	1.59 µM	3.17 µM	1.85 µM	3.52 µM	1.9 µM	4.16 µM	1.79 µM	3.26 µM	1.62 µM	3.03 µM	1.63 µM	3.32 µM
COC(=O)C1(C)CC2C(C)(CCC3(C)C4=CC=C5C(=CC(=O)C(O)=C5C)C4(C)CCC23C)CC1O (stereo not drawn)		2.81 µM		1.72 µM		1.37 µM				2.86 µM		1.77 µM		14.4 µM		2.24 µM				
O=C(O)c1c(Cl)c(Cl)c(Cl)c(Cl)c1C(=O)Nc1ccc2cn[nH]c2c1		> 100 µM		> 100 µM		> 100 µM		> 100 µM		> 100 µM		> 100 µM		> 100 µM		> 100 µM				> 100 µM
CCCCCCCCCC(CCCC(O)CC(=O)O)OC1OC(COC2OC(C)C(OC(C)=O)C(O)C2O)C(O)C(O)C1OC1OC(CO)C(O)C(O)C1OC1OC(C)C(OC(=O)CC(C)C)C(O)C1O (stereo not drawn)	> 35 µM	> 35 µM	> 35 µM	> 35 µM	> 35 µM	> 35 µM	> 35 µM	> 35 µM	> 35 µM	> 35 µM	> 35 µM	> 35 µM	> 35 µM	> 35 µM	> 35 µM	> 35 µM	> 35 µM	> 35 µM	> 35 µM	> 35 µM
O=C1c2cccnc2C(=O)c2c1c(C(=O)NCCn1ccnc1)c1ccccn21	2.22 µM	11.9 µM	1.48 µM	3.17 µM	3.88 µM	15.7 µM	0.551 µM	2.29 µM	1.19 µM	3.37 µM	3.46 µM	> 100 µM	5.26 µM	38.7 µM	2.28 µM	7.43 µM	1.59 µM	5.54 µM	2.55 µM	11.1 µM
COc1cc(/C=C/C(=O)/C=C/c2cc3ccc(Cl)cc3n(Cc3ccccc3)c2=O)ccc1O	1.73 µM	3.88 µM	1.97 µM	6.25 µM	1.8 µM	3.34 µM	1.89 µM	4.27 µM	0.418 µM	12.3 µM	2.93 µM	16.6 µM	3.79 µM	62 µM	0.71 µM	2.43 µM	1.29 µM	2.61 µM	1.56 µM	4.33 µM
Cc1nc(-c2cnc(NC(C)C)n(C)c2=O)ccc1Oc1ccnc(-c2cnn(C)c2)c1	25.2 µM	> 100 µM	10.6 µM	80.7 µM	10.7 µM	44 µM	13.2 µM	> 100 µM	5.07 µM	> 100 µM	20.5 µM	> 100 µM	12.2 µM	67.6 µM	16.1 µM	> 100 µM	20.7 µM	> 100 µM	5.49 µM	> 100 µM
C/C(=N/O)c1ccc2c(c1)/C(=N/O)c1ccccc1-2	33.8 µM	> 100 µM	18.1 µM	35.6 µM	21.3 µM	44.8 µM	21.1 µM	46.4 µM	15.3 µM	35.8 µM	23 µM	56.5 µM	29.4 µM	99.2 µM	25.5 µM	57.7 µM	16.3 µM	33.3 µM	19.3 µM	44.2 µM
CCCCCCCCCCCCCCCCCCOc1ccccc1CC(=O)OCC[N+](CC)(CC)CC	1.52 µM	5.6 µM			0.924 µM	2.06 µM	1.73 µM	6.34 µM	1.35 µM	5.25 µM	1.05 µM	2.7 µM	1.34 µM	4.55 µM	1.73 µM	6.33 µM	0.881 µM	1.66 µM	1.82 µM	7.33 µM
